# Source: the supplement of paper PMC8960247
# ± gives the standard error.
# How the values were obtained:
# 621-102 (TSC2-deficient) [1] = test: relative viability vs DMSO; higher = less cytotoxic; conditions: serum: 10% FBS, 72 h
# 621-103 (TSC2-rescued) = test: as above; conditions: serum: 10% FBS, 72 h
# 621-102 (TSC2-deficient) [2] = test: relative viability vs DMSO (fraction); higher = less cytotoxic; conditions: serum: 0.1% FBS, 72 h
# UMB1949 (TSC2-deficient) = test: as above; conditions: serum: 0.1% FBS, 72 h;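 also: renal angiomyolipoma cell lines screened in 384-well plates, viability normalized per plate to DMSO-treated cells, each plate carrying 50 nM rapamycin and 1 µM staurosporine controls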
SMILES,relative viability (621-102 (TSC2-deficient) [1]; 0.0001 µM) [%],relative viability (621-102 (TSC2-deficient) [1]; 0.001 µM) [%],relative viability (621-102 (TSC2-deficient) [1]; 0.01 µM) [%],relative viability (621-102 (TSC2-deficient) [1]; 0.1 µM) [%],relative viability (621-102 (TSC2-deficient) [1]; 1 µM) [%],relative viability (621-102 (TSC2-deficient) [1]; 10 µM) [%],relative viability (621-103 (TSC2-rescued); 0.0001 µM) [%],relative viability (621-103 (TSC2-rescued); 0.001 µM) [%],relative viability (621-103 (TSC2-rescued); 0.01 µM) [%],relative viability (621-103 (TSC2-rescued); 0.1 µM) [%],relative viability (621-103 (TSC2-rescued); 1 µM) [%],relative viability (621-103 (TSC2-rescued); 10 µM) [%],relative viability (621-102 (TSC2-deficient) [2]; 0.0128 nM),relative viability (621-102 (TSC2-deficient) [2]; 0.064 nM),relative viability (621-102 (TSC2-deficient) [2]; 0.32 nM),relative viability (621-102 (TSC2-deficient) [2]; 1.6 nM),relative viability (621-102 (TSC2-deficient) [2]; 8 nM),relative viability (621-102 (TSC2-deficient) [2]; 40 nM),relative viability (621-102 (TSC2-deficient) [2]; 200 nM),relative viability (621-102 (TSC2-deficient) [2]; 1000 nM),relative viability (621-102 (TSC2-deficient) [2]; 5000 nM),relative viability (UMB1949 (TSC2-deficient); 0.0128 nM),relative viability (UMB1949 (TSC2-deficient); 0.064 nM),relative viability (UMB1949 (TSC2-deficient); 0.32 nM),relative viability (UMB1949 (TSC2-deficient); 1.6 nM),relative viability (UMB1949 (TSC2-deficient); 8 nM),relative viability (UMB1949 (TSC2-deficient); 40 nM),relative viability (UMB1949 (TSC2-deficient); 200 nM),relative viability (UMB1949 (TSC2-deficient); 1000 nM),relative viability (UMB1949 (TSC2-deficient); 5000 nM)
Cn1cc(-c2ccc3nnc(Sc4ccc5ncccc5c4)n3n2)cn1 [SGX-523],104 ± 1.6,94.8 ± 6.4,103 ± 2.1,98.3 ± 4.6,103.8 ± 0.28,97.5 ± 4.1,102 ± 1.5,96.42 ± 0.71,105 ± 2.4,102.4 ± 0.49,102.2 ± 0.92,97.9 ± 1.9,1.13,1.07,0.971,1.13,1.06,0.984,1.01,0.991,0.776,1.09,1.05,1.17,1.23,1.03,1.11,1.19,1.04,0.718
CC1(C)CC(=O)c2c(C(F)(F)F)nn(-c3ccc(C(N)=O)c(N[C@H]4CC[C@H](O)CC4)c3)c2C1 [SNX-2112],60.2 ± 9.5,66.4 ± 8.2,45.4 ± 5.8,21.9 ± 0.44,18.9 ± 2.6,14.8 ± 0.6,112 ± 4,111 ± 1.2,84.4 ± 1.3,7.98 ± 0.57,6.9 ± 0.43,6.78 ± 0.53,0.829,0.471,0.381,0.19,0.232,0.0887,0.0644,0.0224,0.0194,0.771,0.292,0.334,0.0113,0.00964,0.00549,0.00248,0.00255,0.00394
CO[C@H]1C[C@@H]2CC[C@@H](C)[C@@](O)(O2)C(=O)C(=O)N2CCCC[C@H]2C(=O)O[C@H]([C@H](C)C[C@@H]2CC[C@@H](OC(=O)C(C)(CO)CO)[C@H](OC)C2)CC(=O)[C@H](C)/C=C(\C)[C@@H](O)[C@@H](OC)C(=O)[C@H](C)C[C@H](C)/C=C/C=C/C=C/1C [Temsirolimus],40.82 ± 0.13,40.9 ± 3.7,36.1 ± 3.5,36.5 ± 3.5,41.1 ± 4.7,40.6 ± 4.3,84.1 ± 1.2,75.1 ± 3.1,78.7 ± 1.2,83.1 ± 3.1,76.9 ± 5,67.44 ± 0.43,0.696,0.68,0.714,0.666,0.524,0.422,0.263,0.274,0.171,0.901,0.874,0.846,0.894,0.91,0.816,0.629,0.415,0.379
Cn1cncc1[C@@](N)(c1ccc(Cl)cc1)c1ccc2c(c1)c(-c1cccc(Cl)c1)cc(=O)n2C [Tipifarnib],99.6 ± 4.2,117 ± 2.7,93.9 ± 2.1,89.4 ± 1.5,76.4 ± 2.5,63.3 ± 1.7,95.09 ± 0.41,96 ± 1.6,98.8 ± 1.9,81.5 ± 3.5,75.86 ± 0.6,64.3 ± 0.85,0.693,0.533,0.634,0.552,0.512,0.592,0.436,0.274,0.0644,0.938,0.909,0.836,0.961,0.974,0.798,0.525,0.25,0.0103
